Data on 4 molecules can be found in patent publication US20180250404A1, “HIGH-Z NANOPARTICLES AND THE USE THEREOF IN RADIATION THERAPY” (Board of Regents, The University of Texas System, priority 2015, published 2018).

“Also recorded” adds a separate entry of the source.

The test system of test [1] is HN5 cells. Put plainly: Clonogenic survival with inhibitors of endocytosis steps plus cGNR. The format is cell-based. Particulars: HN5, 250 kVp; inhibitor pre-treatment 1 hr, then cGNR 24 hr; CPZ 5 μg/ml, BAF-A1 100 nM, LAC 1 μM, CHQ 5 μM. From the text: (§1) FIGS. 5A-5G: Blocking endocytosis steps modulates radiosensitization by cGNRs. […] The radiation dose enhancement factor (DEF) at 10% cell survival was cGNR—1.08, CPZ+cGNR—1.005, BAF-A1+cGNR—1.19, LAC+cGNR—1.16, and CHQ+cGNR—1.20. (B) Intracellular localization cGNR in HN5 cells imaged by TEM 24 hrs after treatment with cGNRs in the presence of (a) PBS, (b) CPZ, (c) BAF-A1, (d) LAC or (e) CHQ for 1 hr. […] (E) Reactive oxygen species measured by CellROX assay kit following treatment of HN5 cells with 2 Gy radiation in the absence or presence of specific inhibitors of internalization with and without cGNRs. […] (F) Elemental gold content of cells analyzed by inductively coupled plasma mass spectrometry.
(§2) To study the effect of each step of cGNR internalization on radiosensitization, each step of the endocytotic pathway (energy-dependent receptor-mediated endocytosis, early endosomal entrapment, stasis in the late endosomal compartment, and endolysosomal fusion) was blocked using pharmacologic inhibitors in HN5 cells.

Test [2] deals with HN5 cells. Description: Intracellular localization of cGNR by TEM. The format is cell-based. Conditions: TEM 24 hrs after cGNRs, inhibitor for 1 hr.
Source text: as §1, §2

The test system of test [3] is HN5 cells. Put plainly: γ-H2AX foci formation (DNA damage). The class given is cell-based. Conditions: inhibitor pretreatment, cGNR 24h, 2 Gy (250 kV, 15 mA).
Source text: as §1
Therefore, γ-H2AX was evaluated in HN5 cells pretreated with different pharmacological inhibitors and incubated with cGNR for 24h followed by 2 Gy of radiation (250 kV, 15 mA) (FIG. 5C).

Test [4] deals with HN5 cells. Description: Micronuclei per 1000 binucleated cells. The class given is cell-based. Particulars: cGNRs 24 hrs and radiation, inhibitor pretreatment 1 hr.
Source text: as §1
FIG. 10A-10C: Number of micronuclei per 1000 binucleated cells broken down as (A) one, (B) two, or (C) multiple. Cells were treated with cGNRs and radiation in the absence or presence of specific inhibitors of internalization.

For test [5], the system named is HN5 cells. Put plainly: Reactive oxygen species by CellROX assay kit. The format is cell-based. Particulars: 2 Gy radiation, with cGNRs, with or without inhibitors.
Source text: as §1

The test system of test [6] is HN5 cells. Description: Elemental gold content of cells by ICP-MS. The format is cell-based. Conditions: 24 h treatment.
Source text: as §1

Test [7] deals with HN5 xenografts. Put plainly: Tumor regrowth delay of HN5 xenografts with radiation. The class given is in vivo, nu/nu mice. Particulars: CHQ 6 hrs and 24 hrs before radiation, with cGNRs; p=0.02.
Source text: as §1

For the molecule `CO/C1=C\C(C)=C\[C@@H](C)[C@@H](O)[C@@H](C)C/C(C)=C/C=C/[C@H](OC)[C@@H]([C@@H](C)[C@@H](O)[C@H](C)[C@@]2(O)C[C@@H](O)[C@H](C)[C@@H](C(C)C)O2)OC1=O` [bafilomycin A, bafilomycin A1], the “radiation dose enhancement factor (DEF) at 10% cell survival” value in test [1] is listed as 1.19. Besides, the “intracellular localization of cGNR” value in test [2] is listed as “unclustered cGNRs”. The figures for the “γ-H2AX foci / DNA damage” value in test [3], in test [3] (listed as BAF-A1) and in test [3] (listed as Bafilomycin) were “greatest increase in DNA damage”, “increased foci formation” and “further enhanced the DNA damage”, respectively. In addition, the “micronuclei per 1000 binucleated cells” value is “significantly higher number of MNBC” in test [4] and “enhancement in radiosensitization; also recorded: significant increase in radiation-induced micronuclei formation” in test [4] (listed as BAF-A1). Further, the “intracellular reactive oxygen species” value in test [5] is recorded as “further enhanced the intracellular ROS”; in test [5] (listed as BAF-A1), “even greater enhancement of oxidative stress”. Also, the “cellular gold content / uptake of cGNR” value is reported as “no significant differences in the cellular uptake of cGNR” in test [6] and “no different” in test [6] (listed as BAF-A1).
With `CCN(CC)CCCC(C)Nc1ccnc2cc(Cl)ccc12` (stereo not shown) [chloroquine], the “radiation dose enhancement factor (DEF) at 10% cell survival” value in test [1] worked out at 1.2. Besides, the “intracellular localization of cGNR” value in test [2] is reported as “unclustered cGNRs”. The “γ-H2AX foci / DNA damage” value is reported as “further enhanced the DNA damage” in test [3] and “increased foci formation” in test [3] (listed as CHQ). The figures for the “cellular gold content / uptake of cGNR” value in test [6] and in test [6] (listed as CHQ) were “no significant differences in the cellular uptake of cGNR” and “no different”, respectively. Also, the “time to tumor volume quadrupling” value in test [7] is “statistically significant increase in time to tumor volume quadrupling”.
As to `CN(C)CCCN1c2ccccc2Sc2ccc(Cl)cc21` [chlorpromazine], the “radiation dose enhancement factor (DEF) at 10% cell survival” value in test [1] worked out at 1.005. Also, the “intracellular localization of cGNR” value in test [2] was “blocked internalization of cGNRs”. Moreover, the results for the “γ-H2AX foci / DNA damage” value in test [3] and in test [3] (listed as CPZ) were “abrogated the effect of cGNR treatment” and “not”, respectively. The “intracellular reactive oxygen species” value in test [5] is given as “reduced the intracellular ROS”. The “cellular gold content / uptake of cGNR” value in test [6] is reported as “significantly (p<0.001) inhibited the cellular uptake of cGNRs”.
On to `CC(=O)N[C@@H](CSC(=O)[C@]1([C@@H](O)C(C)C)NC(=O)[C@H](C)[C@@H]1O)C(=O)O` [lactacystin], for which, in test [1], the “radiation dose enhancement factor (DEF) at 10% cell survival” value was found to be 1.16. Also, the “intracellular localization of cGNR” value in test [2] is recorded as “unclustered cGNRs”. The “γ-H2AX foci / DNA damage” value in test [3] was “further enhanced the DNA damage”; in test [3] (listed as LAC) it was “increased foci formation”. Further, the entries for the “micronuclei per 1000 binucleated cells” value in test [4] and in test [4] (listed as LAC) were “significantly higher number of MNBC” and “enhancement in radiosensitization; also recorded: significant increase in radiation-induced micronuclei formation”, respectively. Besides, the “intracellular reactive oxygen species” value in test [5] was “further enhanced the intracellular ROS”; in test [5] (listed as LAC), “even greater enhancement of oxidative stress”. Moreover, the “cellular gold content / uptake of cGNR” value in test [6] is on record as “no significant differences in the cellular uptake of cGNR”; in test [6] (listed as LAC), “no different”.
